For 37 compounds, IC50, pKa and solubility results are on record in ChEMBL document CHEMBL1125071, “Quinazoline antifolate thymidylate synthase inhibitors: alkyl, substituted alkyl, and aryl substituents in the C2 position” (J Med Chem, 1990).

What is called IC50 is the concentration that gives 50% inhibition. A lower IC50 goes with greater potency in that assay. For orientation: pKa means the pH at which an ionisable group is half protonated. High values mean a weaker acid or stronger base, low ones a stronger acid or weaker base. For orientation: solubility means how much of the substance goes into solution per volume.

Values after ≈ are worked out from the molar mass of the structure shown.

The subject of data set [1] is L1210. Put plainly: Concentration required to inhibit 50 percent growth of L1210 mouse leukemia cells. The class given is functional, cell-based.
A short description of data set [2]: pKa of nitrogen -1(N1) of the compound. The class given is physicochemical.
Data set [3] is described as follows: pKa of nitrogen -3(N3) of the compound. The class given is physicochemical.
The target of data set [4] is Thymidylate synthase (Mus musculus, UniProt P07607). Nature of the data set: Concentration required for in vitro inhibition of thymidylate synthase.
Thymidylate synthase, sequence (P07607 whole entry): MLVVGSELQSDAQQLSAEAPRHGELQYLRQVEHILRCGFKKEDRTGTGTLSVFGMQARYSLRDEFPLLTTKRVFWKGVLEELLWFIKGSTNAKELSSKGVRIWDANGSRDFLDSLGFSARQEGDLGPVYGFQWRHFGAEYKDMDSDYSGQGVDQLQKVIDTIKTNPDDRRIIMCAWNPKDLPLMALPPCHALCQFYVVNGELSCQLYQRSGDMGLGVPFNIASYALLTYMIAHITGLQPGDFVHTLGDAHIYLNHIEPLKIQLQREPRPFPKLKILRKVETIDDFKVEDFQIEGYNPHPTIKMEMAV
The nature of data set [5]: pKa of nitrogen -1(N1) of the compound; too low to measure accurately. The class given is physicochemical.
Data set [6] can be described thus: Solubility in […] M aqueous NaH2PO4 buffer at pH 7.0 and 25 degree C. The conditions noted are these: 0.92 M aqueous NaH2PO4 buffer. The class given is physicochemical.

In data set [1], `C#CCN(Cc1ccc2nc(CNC(C)=O)[nH]c(=O)c2c1)c1ccc(C(=O)N[C@@H](CCC(=O)O)C(=O)O)cc1` returned an IC50 of 125000 nM. Take `Cc1ccc2nc(C)nc(O)c2c1`: the pKa in data set [2] came out at 3.5; in data set [3], 10.2. In the case of `COCCCN(Cc1ccc2nc(C)[nH]c(=O)c2c1)c1ccc(C(=O)N[C@@H](CCC(=O)O)C(=O)O)cc1`, the IC50 is over 100000 nM in data set [1] and 12900 nM in data set [4]. In turn, `C#CCN(Cc1ccc2nc[nH]c(=O)c2c1)c1ccc(C(=O)N[C@@H](CCC(=O)O)C(=O)O)cc1` showed a half-maximal inhibitory concentration (IC50) in data set [1] of 400 nM. The compound `C=CCN(Cc1ccc2nc(CO)[nH]c(=O)c2c1)c1ccc(C(=O)N[C@@H](CCC(=O)O)C(=O)O)cc1` had an IC50 in data set [1] of 6600 nM. Regarding `CCc1nc2ccc(CNc3ccc(C(=O)N[C@@H](CCC(=O)O)C(=O)O)cc3)cc2c(=O)[nH]1`, the results for the 50% inhibitory concentration (IC50) in data set [1] and in data set [4] were 3200 nM and 20000 nM, respectively. In data set [1], `C#CCN(Cc1ccc2nc(C(C)C)[nH]c(=O)c2c1)c1ccc(C(=O)N[C@@H](CCC(=O)O)C(=O)O)cc1` returned a 50% inhibitory concentration (IC50) of 48000 nM. Consider `Cc1ccc2nc(C(F)F)nc(O)c2c1`, for which the pKa is under 2 in data set [5] and 7.2 in data set [3]. Compound `O=C(O)CC[C@H](NC(=O)c1ccc(N(CCO)Cc2ccc3nc(CO)[nH]c(=O)c3c2)cc1)C(=O)O` yielded a concentration for half-maximal inhibition (IC50) in data set [1] of 14500 nM. That is a double-digit micromolar value.

Consider `Cc1ccc2nc(CF)nc(O)c2c1`, for which the values for the pKa in data set [5] and in data set [3] were under 2 and 8.5, respectively. Turning to `C#CCN(Cc1ccc2nc(C)[nH]c(=O)c2c1)c1ccc(C(=O)N[C@@H](CCC(=O)O)C(=O)O)cc1`, the concentration in solution in data set [6] (solubility) was 3200 µg/mL (≈ 6.72 mM). In data set [1], this compound returned a half-maximal inhibitory concentration (IC50) of 90 nM. Turning to `Cc1nc2ccc(CN(C)c3ccc(C(=O)N[C@@H](CCC(=O)O)C(=O)O)cc3)cc2c(=O)[nH]1`, the IC50 in data set [1] turned out to be 110 nM; in data set [4], 300 nM.

`O=C(O)CC[C@H](NC(=O)c1ccc(N(CCF)Cc2ccc3nc(CF)[nH]c(=O)c3c2)cc1)C(=O)O`: half-maximal inhibition in data set [1] (IC50) required 1200 nM. This lies in the single-digit micromolar range. On the same count and under the same terms, the result for `O=C(O)CC[C@H](NC(=O)c1ccc(N(CCF)Cc2ccc3nc(CO)[nH]c(=O)c3c2)cc1)C(=O)O` reads 20000 nM; that for `C#CCN(Cc1ccc2nc(C(F)F)nc(O)c2c1)c1ccc(C(=O)N[C@@H](CCC(=O)O)C(=O)O)cc1`, 24000 nM; that for `C#CCN(Cc1ccc2nc(CC)[nH]c(=O)c2c1)c1ccc(C(=O)N[C@@H](CCC(=O)O)C(=O)O)cc1`, 2500 nM. In the case of `C#CCN(Cc1ccc2nc(CSc3ncccn3)[nH]c(=O)c2c1)c1ccc(C(=O)N[C@@H](CCC(=O)O)C(=O)O)cc1`, the half-inhibitory concentration (IC50) in data set [1] was found to be 100000 nM. Consider `CC(=O)CN(Cc1ccc2nc(C)[nH]c(=O)c2c1)c1ccc(C(=O)N[C@@H](CCC(=O)O)C(=O)O)cc1`, for which the IC50 was determined as 1200 nM in data set [1] and 25000 nM in data set [4].

For the compound `Cc1nc2ccc(CN(CCF)c3ccc(C(=O)N[C@@H](CCC(=O)O)C(=O)O)cc3)cc2c(=O)[nH]1`, the half-maximal inhibitory concentration (IC50) turned out to be 400 nM in data set [1] and 240 nM in data set [4]. In data set [1], `C#CCN(Cc1ccc2nc(-c3ccccc3)[nH]c(=O)c2c1)c1ccc(C(=O)N[C@@H](CCC(=O)O)C(=O)O)cc1` yielded an IC50 of over 100000 nM.

With `Cc1nc2ccc(CN(CCO)c3ccc(C(=O)N[C@@H](CCC(=O)O)C(=O)O)cc3)cc2c(=O)[nH]1`, the IC50 stood at 240 nM in data set [1] and 500 nM in data set [4]. Taken in the same sequence, the figures for `Cc1nc2ccc(CN(CCS)c3ccc(C(=O)N[C@@H](CCC(=O)O)C(=O)O)cc3)cc2c(=O)[nH]1` were over 100000 nM and 1760 nM. Turning to `Cc1ccc2nc(C(F)(F)F)nc(O)c2c1`, the figures for the pKa in data set [5] and in data set [3] were under 2 and 5.9, respectively.

In data set [1], `CCN(Cc1ccc2nc(CF)[nH]c(=O)c2c1)c1ccc(C(=O)N[C@@H](CCC(=O)O)C(=O)O)cc1` yielded a 50% inhibitory concentration (IC50) of 700 nM. This counts as sub-micromolar. In the case of `Cc1nc2ccc(CN(CCBr)c3ccc(C(=O)N[C@@H](CCC(=O)O)C(=O)O)cc3)cc2c(=O)[nH]1`, the IC50 in data set [1] is 820 nM; in data set [4], 1300 nM. Take `CCN(Cc1ccc2nc(CO)[nH]c(=O)c2c1)c1ccc(C(=O)N[C@@H](CCC(=O)O)C(=O)O)cc1`: the 50% inhibitory concentration (IC50) in data set [1] is 16000 nM. For `CN(Cc1ccc2nc(CF)[nH]c(=O)c2c1)c1ccc(C(=O)N[C@@H](CCC(=O)O)C(=O)O)cc1`, the values for the concentration for half-maximal inhibition (IC50) in data set [1] and in data set [4] were 3 nM and 2920 nM, respectively. The corresponding values for `Cc1nc2ccc(CN(CCCO)c3ccc(C(=O)N[C@@H](CCC(=O)O)C(=O)O)cc3)cc2c(=O)[nH]1` are 1240 nM and 540 nM. Taken in the same sequence, the figures for `Cc1nc2ccc(CNc3ccc(C(=O)N[C@@H](CCC(=O)O)C(=O)O)cc3)cc2c(=O)[nH]1` were 70 nM and 4500 nM.

For the compound `CN(Cc1ccc2nc(CO)[nH]c(=O)c2c1)c1ccc(C(=O)N[C@@H](CCC(=O)O)C(=O)O)cc1`, the half-inhibitory concentration (IC50) in data set [1] came to 13000 nM. Consider `CCN(Cc1ccc2nc(C)[nH]c(=O)c2c1)c1ccc(C(=O)N[C@@H](CCC(=O)O)C(=O)O)cc1`, for which the half-maximal inhibitory concentration (IC50) in data set [1] is 360 nM; in data set [4], 170 nM. In data set [1], `C#CCN(Cc1ccc2nc(C(F)(F)F)[nH]c(=O)c2c1)c1ccc(C(=O)N[C@@H](CCC(=O)O)C(=O)O)cc1` yielded an IC50 of over 100000 nM. Regarding `COCCN(Cc1ccc2nc(C)[nH]c(=O)c2c1)c1ccc(C(=O)N[C@@H](CCC(=O)O)C(=O)O)cc1`, the figures for the IC50 in data set [1] and in data set [4] were 40000 nM and 16300 nM, respectively.

For the compound `C=CCN(Cc1ccc2nc(C)[nH]c(=O)c2c1)c1ccc(C(=O)N[C@@H](CCC(=O)O)C(=O)O)cc1`, the values for the IC50 in data set [1] and in data set [4] were 170 nM and 480 nM, respectively. Turning to `Cc1ccc2nc(N)nc(O)c2c1`, the pKa is 4.2 in data set [2] and 9.4 in data set [3]. On to `C#CCN(Cc1ccc2nc(CF)[nH]c(=O)c2c1)c1ccc(C(=O)N[C@@H](CCC(=O)O)C(=O)O)cc1`, for which the IC50 in data set [1] came out at 370 nM. This lies in the sub-micromolar range. As to `C#CCN(Cc1ccc2nc(N)[nH]c(=O)c2c1)c1ccc(C(=O)N[C@@H](CCC(=O)O)C(=O)O)cc1`, the solubility in data set [6] was 70 µg/mL (≈ 0.147 mM). This compound also came in with an IC50 in data set [1] of 3400 nM.
